According to patent US6682914B2, “Bioactive tetracyclic diterpene compounds and methods of preparation and use thereof” (Universidad del Pais Vasco/Euskal Herriko Unibersitatea, priority 2001, dated 2004):

System: Aspergillus nidulans
Experiment: Conidiation-inducing bioassay modified for Aspergillus (conidiophores per mycelial pellet)
Type: cell-based
Conditions: control at least 28 hours
Procedure: Assays were carried out in shaken flask cultures using 25 mL. […] Determination of conidiation inducing activity was followed by microscopic observation of mycelium samples taken at different times. For these purposes, conidiation time was defined as the time at which 50% of the hyphal tips attained the final stage of conidiation (conidia-bearing tips), according to previously established criteria (Ugalde and Pitt, 1983), namely, the direct microscopic observation of three separate groups of 500 hyphal tips, and the determination of the proportion of hyphal tips in each group which bear conidia.
The bioassay procedure described above was used to assess qualitatively in other filamentous fungi, in particular, those of the genus Aspergillus, the conidiation-inducing activity of the compounds that were extracted, isolated and purified from Penicillium cyclopium in accordance with Example 1. […] Thus, the criteria employed to determine the time of conidiation in these cases was the appearance of at least two conidiophores (the specific phialide bearing structure for this genus) on average per mycellial pellet, measured from a minimum of 10 pellets.

Row | Structure (SMILES) | time of incubation to positive conidiogenic activity (at least two conidiophores per mycelial pellet) (100 ng/mL in culture medium) | time of incubation to positive conidiogenic activity (at least two conidiophores per mycelial pellet) (25-50 ng/mL in culture medium)
1 | CC1C(O)CC(O)C2(C)CCC3C4C(C)(C)CCC4(C)CC132 (stereo not drawn) [conidiogenol, (1R*, 3R*, 7R*, 8S*, 11R*, 12R*, 14S*, 15R*)-3,6,6,11,15-pentamethyl-tetracyclo[9.4.0.0^1,8.0^3,7]-pentadecan-12,14-diol] | 22 h | –
2 | CC1C(O)CC(=O)C2(C)CCC3C4C(C)(C)CCC4(C)CC132 (stereo not drawn) [conidiogenone, (1R*, 3R*, 7R*, 8S*, 11R*, 14S*, 15R*)-14-Hydroxy-3,6,6,11,15pentamethyl-tetracyclo[9.4.0.0^1,8.0^3,7]-pentadecan-12-one] | – | 22 h
